Earlier results as cited in patent US20110130710A1, “TREATMENT OF ABNORMAL OR EXCESSIVE SCARS” (priority 2007, published 2011).

Tests used:
[1] = applied topically
epithelial tissue = conditions: about 50 μl, topical application

In the case of platelet derived growth factor [PDGF], the “effective dose of PDGF” value [1] is listed as at least 5 ng/mm^2.

B1: keratinocyte growth factor (protein, UniProt P21781 32-194, looked up)
Fibroblast growth factor 7: CNDMTPEQMATNVNCSSPERHTRSYDYMEGGDIRVRRLFCRTQWYLRIDKRGKVKGTQEMKNNYNIMEIRTVAVGIVAIKGVESEFYLAMNKEGKLYAKKECNEDCNFKELILENHYNTYASAKWTHNGGEMFVALNQKGIPVRGKKTKKEQKTAHFLPMAIT
notes: growth factor useful for wound healing
In the case of B1, the “concentration of KGF that may be effective for wound healing” value (epithelial tissue) is given as “about 5 μg/ml”.
